Laboratory results as given in patent publication US20250214947A1, “3,4-DIHYDROQUINOXALINE-2-CARBOXIMIDE DERIVATIVE COMPOUND AND PHARMACEUTICAL COMPOSITION COMPRISING SAME FOR PREVENTING OR TREATING CANCER DISEASE” (Cureverse Incorporated, priority 2022, published 2025).

How the values were obtained:
[1] = molecular target: HDAC3 (Homo sapiens, UniProt O15379); experiment: Selective inhibitory effect, HDAC Fluorogenic assay kit, HDAC3; details: read-out: HDAC3 enzyme activity (%)
Protocol: (§1) For analysis, HDAC substrate 3 was diluted in buffer to a concentration of 200 μM and used in HDAC 1, 2, 3, 6, and 10 assays, HDAC substrate 2A was diluted in buffer to a concentration of 200 μM and used in HDAC 4, 7, 9, and 11 assays, HDAC substrate 2A was diluted in buffer to a concentration of 20 μM and used in HDAC 8 assays. For the HDAC 11 assay, a dedicated buffer included in the kit was used separately, and the same buffer was used for the remaining assays. The compound of the Example was diluted to 1 mM (1% DMSO concentration) using DMSO to obtain a final concentration of 10 μM, and prepared by diluting 1/10 with assay buffer. In a 96-well black round-bottom plate, 5 μL of the diluted compound of the Example, 5 μL of the diluted HDAC substrate, 5 μL of BSA (1 mg/ml), 5 μL of the HDAC enzyme diluted to the appropriate concentration, and 30 μL of assay buffer were added, and the enzyme reaction was performed at 37° C. for 30 minutes. […] Afterwards, 50 μL of 2×HDAC developer was added to each well. After reacting for 15 minutes at room temperature, the fluorescence values at excitation wavelengths of 350-380 nm and emission wavelengths of 440-460 nm were measured using a microplate reader (Synergy Neo).

[2] = tested on: PC-3 prostate cancer cells; experiment: Prostate cancer cell growth inhibition, CCK-8 assay; format: cell-based, human; details: various concentrations; 24 hours and 48 hours; FIG. 1
Protocol: PC-3, a human-derived prostate cancer cell line, was cultured with RPMI1640 (10% fetal bovine serum, 1% Penicillin Streptomycin) culture medium at 37° C., 5% CO2 condition. All cells in the experiment were subcultured when they reached a confluency of approximately 80% to 90%, and only cells that had not passed 20 passages were used.
After culturing, 10 L CCK-8 reagent was added and the absorbance was measured after 1 hour. The absorbance was measured at 450 nm using a microplate reader [BMG Labtech (Offenburg, Germany)].

[3] = molecular target: T1, HDAC6 (Homo sapiens, UniProt Q9UBN7); experiment: Selective inhibitory effect, HDAC Fluorogenic assay kit, HDAC6; details: read-out: HDAC6 enzyme activity (%)
T1 sequence (Q9UBN7 1-1215): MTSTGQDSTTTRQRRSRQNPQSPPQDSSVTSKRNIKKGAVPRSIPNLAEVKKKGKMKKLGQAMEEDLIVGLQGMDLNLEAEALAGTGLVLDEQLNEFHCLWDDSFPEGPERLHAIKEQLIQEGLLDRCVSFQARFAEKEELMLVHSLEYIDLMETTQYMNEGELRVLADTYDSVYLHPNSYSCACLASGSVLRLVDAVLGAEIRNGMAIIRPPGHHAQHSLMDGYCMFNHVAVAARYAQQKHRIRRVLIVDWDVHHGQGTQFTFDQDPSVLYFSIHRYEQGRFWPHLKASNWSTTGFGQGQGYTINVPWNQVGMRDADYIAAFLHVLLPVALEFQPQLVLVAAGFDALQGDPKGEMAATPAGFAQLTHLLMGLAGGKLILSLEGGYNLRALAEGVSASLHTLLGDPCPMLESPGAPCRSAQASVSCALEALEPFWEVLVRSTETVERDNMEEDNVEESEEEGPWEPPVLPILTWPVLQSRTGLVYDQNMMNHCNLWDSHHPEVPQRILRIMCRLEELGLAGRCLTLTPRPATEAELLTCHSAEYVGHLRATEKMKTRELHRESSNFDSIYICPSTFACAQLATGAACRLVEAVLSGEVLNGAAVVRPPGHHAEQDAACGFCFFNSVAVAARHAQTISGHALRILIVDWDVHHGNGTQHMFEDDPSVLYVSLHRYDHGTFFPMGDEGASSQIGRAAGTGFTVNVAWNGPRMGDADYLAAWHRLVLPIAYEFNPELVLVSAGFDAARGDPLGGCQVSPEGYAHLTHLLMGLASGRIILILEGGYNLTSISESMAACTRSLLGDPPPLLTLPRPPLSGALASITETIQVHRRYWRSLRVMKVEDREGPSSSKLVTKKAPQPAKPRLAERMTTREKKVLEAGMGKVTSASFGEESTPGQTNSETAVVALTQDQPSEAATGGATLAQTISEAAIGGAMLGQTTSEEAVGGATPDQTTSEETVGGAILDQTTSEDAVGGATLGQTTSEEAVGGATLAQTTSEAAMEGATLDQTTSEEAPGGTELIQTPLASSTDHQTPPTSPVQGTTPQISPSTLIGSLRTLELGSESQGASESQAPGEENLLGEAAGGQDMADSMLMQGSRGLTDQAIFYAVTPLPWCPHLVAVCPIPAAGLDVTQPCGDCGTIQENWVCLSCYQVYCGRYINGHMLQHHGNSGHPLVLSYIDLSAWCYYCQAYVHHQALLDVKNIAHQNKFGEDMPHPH
Protocol: as §1

Chain of HDAC3 (O15379 whole entry): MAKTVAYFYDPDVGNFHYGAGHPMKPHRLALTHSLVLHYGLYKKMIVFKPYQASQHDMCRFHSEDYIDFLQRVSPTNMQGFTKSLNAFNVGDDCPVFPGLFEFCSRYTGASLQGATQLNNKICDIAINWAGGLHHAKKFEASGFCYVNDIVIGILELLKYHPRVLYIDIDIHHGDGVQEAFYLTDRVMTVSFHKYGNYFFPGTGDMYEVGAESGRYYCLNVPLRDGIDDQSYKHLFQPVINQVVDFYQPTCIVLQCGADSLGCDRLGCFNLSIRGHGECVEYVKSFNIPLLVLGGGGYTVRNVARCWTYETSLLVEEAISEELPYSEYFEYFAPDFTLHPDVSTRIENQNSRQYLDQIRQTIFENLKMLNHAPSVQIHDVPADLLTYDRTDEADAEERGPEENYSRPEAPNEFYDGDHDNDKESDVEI
Chain of HDAC3 (Q9Y618 395-489 partner limits assumed): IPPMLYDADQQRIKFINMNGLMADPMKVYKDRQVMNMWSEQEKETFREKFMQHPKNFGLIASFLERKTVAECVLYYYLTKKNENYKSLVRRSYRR

remaining activity at 10 µM [1]: 73.1%
remaining activity at 10 µM [3]: 43.7%
SMILES: Cc1cc2nc(C(=O)NCCc3c[nH]c4ccc(O)cc34)c(=O)n(C[C@H](O)[C@H](O)[C@H](O)CO)c2cc1C [Example 27, N-(2-(5-hydroxy-1H-indol-3-yl)ethyl)-6,7-dimethyl-3-oxo-4-((2S,3S,4R)-2,3,4,5-tetrahydroxypentyl)-3,4-dihydroquinoxaline-2-carboxamide]
PC-3 cancer cell viability inhibition rate compared with PCI-34051 [2]: superior to that of PCI-34051
PC-3 cell viability (in words) [2]: effectively reduced the viability of prostate cancer cells in a concentration- and time-dependent manner
